Experimental findings from US20250382268A1, “METHODS AND COMPOSITIONS FOR SELECTIVELY INHIBITING PATHOGENIC MICROBES” (priority 2019, published 2025) are described below.

Structures are written as SMILES. ≈ marks a conversion by molar mass, not a printed value. Read-outs that look alike come from different tables or passages of the source.

One data set has as its system Candida glabrata. Kind of data set: microbe, parasite or virus in culture. Type of data set: cell-based. The settings on record: Nakaseomyces glabratus.
The test system of the next data set is Burkholderia cenocepacia. As to the kind of experiment: microbe, parasite or virus in culture. Type of data set: cell-based.
A further data set concerns Bacillus thuringiensis. Kind of data set: microbe, parasite or virus in culture. Type of data set: cell-based.
The test system of another data set is Bacillus subtilis. Kind of data set: MIC/MBC against Bacillus subtilis strains. It is filed as cell-based.
Data set [1] has as its system Burkholderia thailandensis. As to the kind of experiment: microbe, parasite or virus in culture. It is filed as cell-based.
In another data set the test system is N. gonorrhoeae. Kind of data set: microbe, parasite or virus in culture. It is filed as cell-based. The settings on record: Neisseria gonorrhoeae.
A further data set has as its system Francisella tularensis. Kind of data set: microbe, parasite or virus in culture. Type of data set: cell-based. As to conditions: read-out: Francisella tularensis NR-577 MIC, strain NR-577.
The test system of data set [2] is S. aureus. As to the kind of experiment: SYTOX green cell permeability assay on S. aureus. As to conditions: concentrations relative to the MIC, FIG. 1A. It is filed as cell-based, Staphylococcus aureus.
The test system of data set [3] is S. aureus. As to the kind of experiment: Macromolecular synthesis assay (glucosamine incorporation into cell wall). It is filed as cell-based, Staphylococcus aureus. The settings on record: dose-response, FIG. 2A-2B.
Data set [4] deals with HepG2 cells. Kind of data set: Cytotoxicity MTT assay in HepG2 cells. Type of data set: cell-based. As to conditions: Homo sapiens. The procedure:
Additionally, the antimicrobial compounds were analyzed for cytotoxicity. […] We utilized the standard MTT assay (Promega CellTiter 96) and GraphPad Prism 7 software to determine EC50 values for each analogue. Briefly, 20,000 HepG2 cells in 200 μl of the ATCC recommended media were seeded in each well of a 96-well plate with a moisture barrier created in the outermost wells. The cells were allowed to attach overnight at 37° C., and then observed under phase contrast microscopy for proper morphological characteristics. […] Once incubations were complete, the spectrophotometric absorbance of the samples was measured at a wavelength of 595 nm. […] For the HepaRG assay, NoSpin HepaRG™ cells (Lonza, cat #NSHPRG) were thawed and plated with 20,000 cells per well. They were allowed to attach for 4 h (optimal DME profile per Lonza's testing) before dosing following the identical protocol as above.
(In general: Tetrazolium assays rely on reduction of a dye to a coloured formazan, in cell work by metabolically active cells.)

Data set [5] relates to branched chain amino acid synthesis pathway. As to the kind of experiment: Transcriptomic (RNAseq) and metabolic mechanism of action studies.
For data set [6], the system named is HepG2 cells. Kind of data set: SYTOX permeabilization assay on HepG2 cells. Type of data set: cell-based. As to conditions: up to 4× MIC, FIG. 2C.
Another data set concerns Staphylococcus aureus. Kind of data set: microbe, parasite or virus in culture.
Where [7] appears, read: read-out: Neisseria gonorrhoeae WHO 914 MIC, strain WHO 914.

In general, EC50 refers to the midpoint of the concentration-response curve. Higher therefore signals a less potent agent.

For `Brc1ccc(Oc2c[nH]c3cc(Br)ccc23)cc1` [174AC, 6-bromo-3-(4-bromophenoxy)-1H-indole], the MIC in the data set on Candida glabrata is 25 µg/mL (≈ 68.1 µM); with Burkholderia cenocepacia it was more than 50 µg/mL; in the data set with Bacillus thuringiensis (Bacillus thuringiensis Berliner ATCC: 10792), 8 µg/mL (≈ 21.8 µM); against Bacillus subtilis, 8 µg/mL (≈ 21.8 µM); in data set [1], more than 50 µg/mL. The figures for the MBC in the data set with Bacillus thuringiensis and with Bacillus subtilis were 50 µg/mL (≈ 136 µM) and 16 µg/mL (≈ 43.6 µM), respectively.

On to `Brc1ccc(Oc2c[nH]c3ccccc23)cc1` [Compound 156KC, 3-(4-bromophenoxy)-1H-indole], for which the MIC amounted to 8 µg/mL (≈ 27.8 µM) in the data set on N. gonorrhoeae (read-out: Neisseria gonorrhoeae WHO 901 MIC, strain WHO 901); 8 µg/mL (≈ 27.8 µM) in the data set on N. gonorrhoeae (setting [7]); 2 µg/mL (≈ 6.94 µM) with Francisella tularensis.

Regarding `Fc1ccc2[nH]cc(Cc3ccc(Br)cc3)c2c1` [Compound 174EB, 3-(4-bromobenzyl)-5-fluoro-1H-indole], the figures for the MIC in the data set on N. gonorrhoeae (setting [7]) and in the data set with Francisella tularensis were 8 µg/mL (≈ 26.3 µM) and 2 µg/mL (≈ 6.58 µM), respectively.

For `Brc1ccc2[nH]cc(Sc3ccccc3Br)c2c1` [Compound 174I, 5-bromo-3-((2-bromophenyl)thio)-1H-indole], the “cell permeability by SYTOX green fluorescence” value with S. aureus [2] is listed as “clear dose-dependent increase in permeability”. For the same compound, the “cell wall synthesis inhibition (glucosamine incorporation)” value in the data set with S. aureus [3] is on record as “substantial cell wall synthesis inhibition”. For the same compound, in the data set on HepG2 cells [4], the EC50 came out at 25.4 µg/mL (≈ 66.3 µM). Also, the “mechanism of action by transcriptomic and metabolic studies” value in data set [5] is given as “branched chain amino acid biosynthesis inhibition”. Further, in the data set on HepG2 cells [6], the “permeabilization of HepG2 cells (SYTOX)” value is listed as “no permeabilization of HepG2 cells”.

The compound `Nc1ccccc1Sc1c[nH]c2ccc(Br)cc12` [Compound 174M, 2-((5-bromo-1H-indol-3-yl)thio)aniline] returned an EC50 in the data set on HepG2 cells [4] of 26.5 µg/mL (≈ 83 µM). Besides, the “mechanism of action by transcriptomic and metabolic studies” value in [5] is “branched chain amino acid biosynthesis inhibition”. Also, the “permeabilization of HepG2 cells (SYTOX)” value in the data set with HepG2 cells [6] is “no permeabilization of HepG2 cells”. Also, the MIC was found to be 12.5 µg/mL (≈ 39.2 µM) in the data set with Staphylococcus aureus (MRSA, read-out: Staphylococcus aureus MIC, MRSA strain HM-467); 12.5 µg/mL (≈ 39.2 µM) with Staphylococcus aureus (MRSA, read-out: Staphylococcus aureus MIC, MRSA strain NK-41886); 12.5 µg/mL (≈ 39.2 µM) with Staphylococcus aureus (MRSA, read-out: Staphylococcus aureus MIC, MRSA strain NR-13533); 12.5 µg/mL (≈ 39.2 µM) in the data set on Staphylococcus aureus (MRSA, read-out: Staphylococcus aureus MIC, MRSA strain NR-28983); 12.5 µg/mL (≈ 39.2 µM) in the data set with Staphylococcus aureus (MRSA, read-out: Staphylococcus aureus MIC, MRSA strain NR-41875); 12.5 µg/mL (≈ 39.2 µM) in the data set on Staphylococcus aureus (MRSA, read-out: Staphylococcus aureus MIC, MRSA strain NR-41876). For the same compound, the MIC in the data set on Staphylococcus aureus (MRSA, read-out: Staphylococcus aureus MIC, MRSA strain NR-41877) was found to be 25 µg/mL (≈ 78.3 µM); with Staphylococcus aureus (MRSA, read-out: Staphylococcus aureus MIC, MRSA strain NR-41878), 12.5 µg/mL (≈ 39.2 µM); in the data set on Staphylococcus aureus (read-out: Staphylococcus aureus MIC, VSSA NR-49121), 12.5 µg/mL (≈ 39.2 µM).

In the case of `CC[C@H](C)[C@H](NC(=O)CN)C(=O)NCC(=O)N[C@@H](C)C(=O)N[C@H](C(=O)N[C@@H](CC(C)C)C(=O)N[C@@H](CCCCN)C(=O)N[C@H](C(=O)N[C@@H](CC(C)C)C(=O)N[C@H](C(=O)N[C@H](C(=O)NCC(=O)N[C@@H](CC(C)C)C(=O)N1CCC[C@H]1C(=O)N[C@@H](C)C(=O)N[C@@H](CC(C)C)C(=O)N[C@H](C(=O)N[C@@H](CO)C(=O)N[C@@H](Cc1c[nH]c2ccccc12)C(=O)N[C@H](C(=O)N[C@@H](CCCCN)C(=O)N[C@@H](CCCNC(=N)N)C(=O)N[C@@H](CCCCN)C(=O)N[C@@H](CCCNC(=N)N)C(=O)N[C@@H](CCC(N)=O)C(=O)N[C@@H](CCC(N)=O)C(N)=O)[C@@H](C)CC)[C@@H](C)CC)[C@@H](C)O)[C@@H](C)O)C(C)C)C(C)C` [melittin, reference compound], the “cell permeability by SYTOX green fluorescence” value with S. aureus [2] is “permeabilizes cells”.

Consider `CN[C@H](CC(C)C)C(=O)N[C@H]1C(=O)N[C@@H](CC(N)=O)C(=O)N[C@H]2C(=O)N[C@H]3C(=O)N[C@H](C(=O)N[C@H](C(=O)O)c4cc(O)cc(O)c4-c4cc3ccc4O)[C@H](O)c3ccc(c(Cl)c3)Oc3cc2cc(c3O[C@@H]2O[C@H](CO)[C@@H](O)[C@H](O)[C@H]2O[C@H]2C[C@](C)(N)[C@H](O)[C@H](C)O2)Oc2ccc(cc2Cl)[C@H]1O` [vancomycin, reference compound], for which, in the data set with S. aureus [3], the “cell wall synthesis inhibition (glucosamine incorporation)” value is reported as “increasingly inhibits glucosamine from incorporating into a cell wall”.
